Reference: patent US20250302815A1, “PROTEIN TYROSINE PHOSPHATASE TARGETING LIGANDS” (CALICO LIFE SCIENCES LLC, priority 2021, published 2025)
“And” between values parts separate entries of the source, which are not always exact repeats. Equal values may be shown once.

Tests used:
[1] = molecular target: T1, PTPN2 (HiBIT-PTPN2 in 293T.109 cells) (Homo sapiens, UniProt P17706); experiment: HiBiT Degradation 293T.109 PTPN2 (Nano-Glo HiBiT Lytic Assay); assay type: cell-based; details: 24.0 hours
T1 construct: expressed in transfected cells; host or cells: 293T.109 (293T WT from ATCC)
T1 sequence (P17706 1-415): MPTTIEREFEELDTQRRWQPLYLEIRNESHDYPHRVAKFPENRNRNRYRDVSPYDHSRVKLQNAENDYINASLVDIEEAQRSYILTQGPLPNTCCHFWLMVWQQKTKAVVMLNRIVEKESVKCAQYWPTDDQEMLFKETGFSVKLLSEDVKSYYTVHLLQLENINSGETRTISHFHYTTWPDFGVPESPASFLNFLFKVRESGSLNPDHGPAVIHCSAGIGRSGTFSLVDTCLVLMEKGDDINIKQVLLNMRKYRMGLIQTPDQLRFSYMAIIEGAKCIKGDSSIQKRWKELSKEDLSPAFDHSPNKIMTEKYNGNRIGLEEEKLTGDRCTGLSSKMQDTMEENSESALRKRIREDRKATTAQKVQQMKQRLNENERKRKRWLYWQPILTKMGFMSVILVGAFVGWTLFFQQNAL
In short: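 293T.109 cells with ectopic N-terminal HiBiT-tagged PTPN2 (5000/well) exposed to compounds for 24 h at 37 °C, 5% CO2; 11-point half-log titration from 10 μM top, duplicates. Remaining HiBiT-PTPN2 read as luminescence with Nano-Glo HiBiT lytic reagent, normalised to untreated cells (0%) and reagent-free wells.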

PTPN2 (B16F10.4 cells) = molecular target: T2, PTPN2 (B16F10.4 cells) (Mus musculus, UniProt Q06180); experiment: HiBiT Degradation B16F10.4 PTPN2; assay type: cell-based; details: 24.0 hours
T2 construct: HiBiT; host or cells: B16F10.4
T2 sequence (Q06180 1-406): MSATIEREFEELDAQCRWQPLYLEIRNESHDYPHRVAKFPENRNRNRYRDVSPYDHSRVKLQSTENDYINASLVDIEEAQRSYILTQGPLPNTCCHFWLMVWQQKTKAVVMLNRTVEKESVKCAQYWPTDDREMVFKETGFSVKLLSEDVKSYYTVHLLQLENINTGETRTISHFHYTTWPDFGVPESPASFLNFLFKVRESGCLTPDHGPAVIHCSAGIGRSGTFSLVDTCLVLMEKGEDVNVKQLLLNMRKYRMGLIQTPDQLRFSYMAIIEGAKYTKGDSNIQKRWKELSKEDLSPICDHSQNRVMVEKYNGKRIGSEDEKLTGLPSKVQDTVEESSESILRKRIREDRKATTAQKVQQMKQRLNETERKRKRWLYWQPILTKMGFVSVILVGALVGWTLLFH

DC50 [1] [nM]	DC50 (PTPN2 (B16F10.4 cells))	SMILES
50 to 200	50 to 200 nM and < 50 nM	CC(C)n1c(=O)n(C2CCC(=O)NC2=O)c2ccc(C3CCN(C(=O)Nc4cccc(CS(=O)(=O)N5CC[C@H](Nc6cccc(-c7sc(C(=O)O)c(OCC(=O)O)c7Cl)c6)CC5(C)C)c4)CC3)cc21 (stereo partly drawn) [Example 87, 3-(carboxymethoxy)-4-chloro-5-[3-[[(4S)-1-[[3-[[4-[1-(2,6-dioxo-3-piperidyl)-3-isopropyl-2-oxo-benzimidazol-5-yl]piperidine-1-carbonyl]amino]phenyl]methylsulfonyl]-2,2-dimethyl-4-piperidyl]amino]phenyl]thiophene-2-carboxylic acid]
< 50	50 to 200 nM	CCn1c(=O)n(C2CCC(=O)NC2=O)c2ccc(C3CCN(C(=O)Nc4cccc(CS(=O)(=O)N5CC[C@H](Nc6cccc(-c7sc(C(=O)O)c(OCC(=O)O)c7Cl)c6)CC5(C)C)c4)CC3)cc21 (stereo partly drawn) [Example 88, 3-(carboxymethoxy)-4-chloro-5-(3-(((4S)-1-((3-(4-(1-(2,6-dioxopiperidin-3-yl)-3-ethyl-2-oxo-2,3-dihydro-1H-benzo[d]imidazol-5-yl)piperidine-1-carboxamido)benzyl)sulfonyl)-2,2-dimethylpiperidin-4-yl)amino)phenyl)thiophene-2-carboxylic acid]
< 50	200 to 1000 nM	CC1(C)C[C@@H](Nc2cccc(-c3sc(C(=O)O)c(OCC(=O)O)c3Cl)c2)CCN1S(=O)(=O)Cc1cccc(NC(=O)COC2CCN(C(=O)CNc3cccc4c3CN(C3CCC(=O)NC3=O)C4=O)CC2)c1 (stereo partly shown) [Example 90]
50 to 200	50 to 200 nM	Cn1c(=O)n(C2CCC(=O)NC2=O)c2ccc(C#CCNC(=O)Nc3cccc(CS(=O)(=O)N4CC[C@H](Nc5cccc(-c6sc(C(=O)O)c(OCC(=O)O)c6Cl)c5)CC4(C)C)c3)cc21 (stereo partly drawn) [Example 91, 3-(carboxymethoxy)-4-chloro-5-(3-(((4S)-1-((3-(3-(3-(1-(2,6-dioxopiperidin-3-yl)-3-methyl-2-oxo-2,3-dihydro-1H-benzo[d]imidazol-5-yl)prop-2-yn-1-yl)ureido)benzyl)sulfonyl)-2,2-dimethylpiperidin-4-yl)amino)phenyl)thiophene-2-carboxylic acid]
50 to 200	200 to 1000 nM	CC1(C)C[C@@H](Nc2cccc(-c3sc(C(=O)O)c(OCC(=O)O)c3Cl)c2)CCN1S(=O)(=O)Cc1cccc(NC(=O)COC2CN(C(=O)CNc3cccc4c3CN(C3CCC(=O)NC3=O)C4=O)C2)c1 (stereo partly shown) [Example 92]
50 to 200	200 to 1000 nM	O=C(O)COc1c(C(=O)O)sc(-c2cccc(NC3CCN(S(=O)(=O)Cc4ccc(F)c(NC(=O)C5CN(C(=O)COc6cccc7c6CN(C6CCC(=O)NC6=O)C7=O)C5)c4)CC3)c2)c1Cl (stereo not shown) [Example 93]
200 to 1000	200 to 1000 nM	CC1(C)C[C@@H](Nc2cccc(-c3sc(C(=O)O)c(OCC(=O)O)c3Cl)c2)CCN1S(=O)(=O)Cc1cccc(NC(=O)N2CCC(c3ccc4c(c3)CCN4C3CCC(=O)NC3=O)CC2)c1 (stereo partly drawn) [Example 94, 3-(carboxymethoxy)-4-chloro-5-[3-[[(4S)-1-[[3-[[4-[1-(2,6-dioxo-3-piperidyl)indolin-5-yl]piperidine-1-carbonyl]amino]phenyl]methylsulfonyl]-2,2-dimethyl-4-piperidyl]amino]phenyl]thiophene-2-carboxylic acid]
200 to 1000	200 to 1000 nM	CC1Cc2cc(C3CCN(C(=O)Nc4cccc(CS(=O)(=O)N5CC[C@H](Nc6cccc(-c7sc(C(=O)O)c(OCC(=O)O)c7Cl)c6)CC5(C)C)c4)CC3)ccc2N1C1CCC(=O)NC1=O (stereo partly drawn) [Example 95, 3-(carboxymethoxy)-4-chloro-5-[3-[[(4S)-1-[[3-[[4-[1-(2,6-dioxo-3-piperidyl)-2-methyl-indolin-5-yl]piperidine-1-carbonyl]amino]phenyl]methylsulfonyl]-2,2-dimethyl-4-piperidyl]amino]phenyl]thiophene-2-carboxylic acid]
50 to 200	200 to 1000 nM	CC1(C)C[C@@H](Nc2cccc(-c3sc(C(=O)O)c(OCC(=O)O)c3Cl)c2)CCN1S(=O)(=O)Cc1cccc(NC(=O)OC2CN(C(=O)CNc3cccc4c3CN(C3CCC(=O)NC3=O)C4=O)C2)c1 (stereo partly drawn) [Example 96, 3-(carboxymethoxy)-4-chloro-5-[3-[[(4S)-1-[[3-[[1-[2-[[2-(2,6-dioxo-3-piperidyl)-1-oxo-isoindolin-4-yl]amino]acetyl]azetidin-3-yl]oxycarbonylamino]phenyl]methylsulfonyl]-2,2-dimethyl-4-piperidyl]amino]phenyl]thiophene-2-carboxylic acid]
200 to 1000	≥ 1000 nM	CC1(C)C[C@@H](Nc2cccc(-c3sc(C(=O)O)c(OCC(=O)O)c3Cl)c2)CCN1S(=O)(=O)Cc1cccc(NC(=O)C2C[C@@H]3CN(C(=O)CNc4cccc5c4CN(C4CCC(=O)NC4=O)C5=O)C[C@@H]3C2)c1 (stereo partly drawn) [Example 97, 5-[3-[[(4S)-1-[[3-[[(3aR,6aS)-2-[2-[[2-(2,6-dioxo-3-piperidyl)-1-oxo-isoindolin-4-yl]amino]acetyl]-3,3a,4,5,6,6a-hexahydro-1H-cyclopenta[c]pyrrole-S-carbonyl]amino]phenyl]methylsulfonyl]-2,2-dimethyl-4-piperidyl]amino]phenyl]-3-(carboxymethoxy)-4-chloro-thiophene-2-carboxylic acid]
50 to 200	200 to 1000 nM	CC1(C)C[C@@H](Nc2cccc(-c3sc(C(=O)O)c(OCC(=O)O)c3Cl)c2)CCN1S(=O)(=O)Cc1cccc(NC(=O)[C@H]2[C@@H]3CN(C(=O)CNc4cccc5c4CN(C4CCC(=O)NC4=O)C5=O)C[C@@H]32)c1 (stereo partly shown) [Example 98]
50 to 200	< 50 nM	Cn1c(=O)n(C2CCC(=O)NC2=O)c2ccc(C3CCN(C(=O)Nc4cccc(CS(=O)(=O)N5CCC(Nc6cccc(-c7sc(C(=O)O)c(OCC(=O)O)c7Cl)c6)CC5)c4F)CC3)cc21 (stereo not shown) [Example 99, 3-(carboxymethoxy)-4-chloro-5-[3-[[1-[[3-[[4-[1-(2,6-dioxo-3-piperidyl)-3-methyl-2-oxo-benzimidazol-5-yl]piperidine-1-carbonyl]amino]-2-fluoro-phenyl]methylsulfonyl]-4-piperidyl]amino]phenyl]thiophene-2-carboxylic acid]
200 to 1000	200 to 1000 nM	CC1(C)C[C@@H](Nc2cccc(-c3sc(C(=O)O)c(OCC(=O)O)c3Cl)c2)CCN1S(=O)(=O)Cc1cccc(NC(=O)C2C[C@@H]3CN(C(=O)COc4cccc5c4CN(C4CCC(=O)NC4=O)C5=O)C[C@@H]3C2)c1 (stereo partly shown) [Example 100]
50 to 200	50 to 200 nM	CC1(C)C[C@@H](Nc2cccc(-c3sc(C(=O)O)c(OCC(=O)O)c3Cl)c2)CCN1S(=O)(=O)Cc1cccc(NC(=O)[C@H]2[C@@H]3CN(C(=O)COc4cccc5c4CN(C4CCC(=O)NC4=O)C5=O)C[C@@H]32)c1 (stereo partly shown) [Example 101]
50 to 200	50 to 200 nM	Cn1c(=O)n(C2CCC(=O)NC2=O)c2ccc(N3CCC4(CC3)CN(C(=O)Nc3cccc(CS(=O)(=O)N5CCC(Nc6cccc(-c7sc(C(=O)O)c(OCC(=O)O)c7Cl)c6)CC5)c3)C4)cc21 (stereo not shown) [Example 102, 3-(carboxymethoxy)-4-chloro-5-[3-[[1-[[3-[[7-[1-(2,6-dioxo-3-piperidyl)-3-methyl-2-oxo-benzimidazol-5-yl]-2,7-diazaspiro[3.5]nonane-2-carbonyl]amino]phenyl]methylsulfonyl]-4-piperidyl]amino]phenyl]thiophene-2-carboxylic acid]
200 to 1000	50 to 200 nM	Cn1c(=O)n(C2CCC(=O)NC2=O)c2ccc(C3CCN(C(=O)Nc4cccc(CS(=O)(=O)N5CCC(Oc6cccc(-c7sc(C(=O)O)c(OCC(=O)O)c7Cl)c6)CC5)c4)CC3)cc21 (stereo not shown) [Example 103, 3-(Carboxymethoxy)-4-chloro-5-[3-[[1-[[3-[[4-[1-(2,6-dioxo-3-piperidyl)-3-methyl-2-oxo-benzimidazol-S-yl]piperidine-1-carbonyl]amino]phenyl]methylsulfonyl]-4-piperidyl]oxy]phenyl]thiophene-2-carboxylic acid]
50 to 200	< 50 nM	Cn1c(=O)n(C2CCC(=O)NC2=O)c2ccc(C3CCN(C(=O)Nc4cc(CS(=O)(=O)N5CCC(Nc6cccc(-c7sc(C(=O)O)c(OCC(=O)O)c7Cl)c6)CC5)ccc4F)CC3)cc21 (stereo not shown) [Example 104, 3-(carboxymethoxy)-4-chloro-5-[3-[[1-[[3-[[4-[1-(2,6-dioxo-3-piperidyl)-3-methyl-2-oxo-benzimidazol-5-yl]piperidine-1-carbonyl]amino]-4-fluoro-phenyl]methylsulfonyl]-4-piperidyl]amino]phenyl]thiophene-2-carboxylic acid]
